Test: Solubility behavior of solid phenothiazine in acrylic acid (method 1b, NIR probe)
Conditions: room temperature
Description: Method for determining the solubility behavior of solid phenothiazine of different forms and particle size distributions
Thereafter, at time intervals of from 1 to 5 mm, either a.) a sample of the dispersion was taken and filtered and the phenothiazine content was determined by UV spectroscopy or b.) the phenothiazine content was determined directly by means of an NIR probe which dipped into the dispersion of phenothiazine in acrylic acid (NIRVIS universal spectrometer from Buchi having a transmission probe with 1.5 mm slit width. In order to prevent disturbances by solid particles in the measuring slit, this was closed by means of a metal screen having a mesh size of 0.18 mm).
For this purpose, in each case 1.33 g of the respective sample were added to 66 g of acrylic acid and measurements were carried out at intervals of one minute (Graph. 1).

c1ccc2c(c1)Nc1ccccc1S2 [phenothiazine, 2,3,5,6-dibenzo-1,4-triazine]
maximum solubility of phenothiazine in acrylic acid: about 2.8 % (m/m)

From patent US20040094749A1, “Method for producing a phenothiazine granulate with improved properties” (priority 2000, published 2004)
